In patent US20240269139A1, “COMPOUNDS FOR TARGETED PROTEIN DEGRADATION OF KINASES” (DANA-FARBER CANCER INSTITUTE, INC., priority 2020, published 2024):
Where “and” joins values, the source holds several entries; their conditions need not be identical. Identical values can stand only once. Like-named read-outs stand apart in the source and are kept apart here.

Experiments:
Type in all cases: cell-based
[1] = molecular target: T1, protein kinases (human kinome) (Homo sapiens, UniProt Q13546)
T1 sequence (Q13546 1-671): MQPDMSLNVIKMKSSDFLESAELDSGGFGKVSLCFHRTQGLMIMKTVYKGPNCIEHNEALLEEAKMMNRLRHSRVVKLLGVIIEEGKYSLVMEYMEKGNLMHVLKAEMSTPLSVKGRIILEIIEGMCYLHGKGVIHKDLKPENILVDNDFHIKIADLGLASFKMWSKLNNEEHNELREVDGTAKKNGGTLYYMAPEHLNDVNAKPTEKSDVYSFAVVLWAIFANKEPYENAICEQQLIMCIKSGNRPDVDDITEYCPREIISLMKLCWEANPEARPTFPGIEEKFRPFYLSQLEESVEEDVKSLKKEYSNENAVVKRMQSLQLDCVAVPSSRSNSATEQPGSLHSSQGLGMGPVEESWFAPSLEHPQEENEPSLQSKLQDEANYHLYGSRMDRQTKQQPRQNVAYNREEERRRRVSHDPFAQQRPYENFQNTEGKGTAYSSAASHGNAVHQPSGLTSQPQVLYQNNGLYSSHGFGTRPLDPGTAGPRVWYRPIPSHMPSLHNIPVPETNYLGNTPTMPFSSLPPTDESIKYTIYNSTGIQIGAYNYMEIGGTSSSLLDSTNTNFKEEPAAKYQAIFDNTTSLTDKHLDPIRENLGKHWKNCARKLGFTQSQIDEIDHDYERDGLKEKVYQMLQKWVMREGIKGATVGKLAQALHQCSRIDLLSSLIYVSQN

[2] = molecular target: protein kinases (human kinome) (Homo sapiens, UniProt P00519)
Chain of protein kinases (human kinome) (Homo sapiens, UniProt P00519) (P00519 whole entry): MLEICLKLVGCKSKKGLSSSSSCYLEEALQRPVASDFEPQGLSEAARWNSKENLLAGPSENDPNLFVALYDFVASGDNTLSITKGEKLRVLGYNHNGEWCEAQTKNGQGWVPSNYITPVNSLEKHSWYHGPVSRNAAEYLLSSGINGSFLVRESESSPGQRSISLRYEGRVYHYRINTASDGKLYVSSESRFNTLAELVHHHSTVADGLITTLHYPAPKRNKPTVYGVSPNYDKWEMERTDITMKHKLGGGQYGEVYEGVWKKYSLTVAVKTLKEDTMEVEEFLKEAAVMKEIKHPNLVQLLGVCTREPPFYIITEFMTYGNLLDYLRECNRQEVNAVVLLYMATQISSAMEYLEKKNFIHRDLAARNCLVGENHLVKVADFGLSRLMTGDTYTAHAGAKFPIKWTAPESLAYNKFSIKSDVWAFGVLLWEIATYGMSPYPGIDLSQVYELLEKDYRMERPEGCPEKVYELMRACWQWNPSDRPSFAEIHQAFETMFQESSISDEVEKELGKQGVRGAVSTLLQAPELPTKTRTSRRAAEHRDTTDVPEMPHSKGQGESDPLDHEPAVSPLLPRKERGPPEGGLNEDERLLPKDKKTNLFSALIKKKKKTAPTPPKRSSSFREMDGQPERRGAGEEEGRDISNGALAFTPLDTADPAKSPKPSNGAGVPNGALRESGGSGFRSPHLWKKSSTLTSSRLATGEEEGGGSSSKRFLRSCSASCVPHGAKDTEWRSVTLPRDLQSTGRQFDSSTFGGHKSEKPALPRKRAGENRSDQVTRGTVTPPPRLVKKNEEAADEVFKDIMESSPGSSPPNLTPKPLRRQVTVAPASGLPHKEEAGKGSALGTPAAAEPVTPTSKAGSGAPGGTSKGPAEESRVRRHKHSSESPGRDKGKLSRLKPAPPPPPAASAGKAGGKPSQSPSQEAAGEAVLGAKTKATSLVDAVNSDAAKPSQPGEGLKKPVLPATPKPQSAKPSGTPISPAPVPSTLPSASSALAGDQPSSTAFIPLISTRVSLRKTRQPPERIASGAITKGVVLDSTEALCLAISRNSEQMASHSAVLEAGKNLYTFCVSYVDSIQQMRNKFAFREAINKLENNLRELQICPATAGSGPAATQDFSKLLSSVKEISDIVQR

[3] = molecular target: T2, protein kinases (human kinome) (Homo sapiens, UniProt O60285); details: NUAK1 (O60285)
T2 sequence (O60285 1-661): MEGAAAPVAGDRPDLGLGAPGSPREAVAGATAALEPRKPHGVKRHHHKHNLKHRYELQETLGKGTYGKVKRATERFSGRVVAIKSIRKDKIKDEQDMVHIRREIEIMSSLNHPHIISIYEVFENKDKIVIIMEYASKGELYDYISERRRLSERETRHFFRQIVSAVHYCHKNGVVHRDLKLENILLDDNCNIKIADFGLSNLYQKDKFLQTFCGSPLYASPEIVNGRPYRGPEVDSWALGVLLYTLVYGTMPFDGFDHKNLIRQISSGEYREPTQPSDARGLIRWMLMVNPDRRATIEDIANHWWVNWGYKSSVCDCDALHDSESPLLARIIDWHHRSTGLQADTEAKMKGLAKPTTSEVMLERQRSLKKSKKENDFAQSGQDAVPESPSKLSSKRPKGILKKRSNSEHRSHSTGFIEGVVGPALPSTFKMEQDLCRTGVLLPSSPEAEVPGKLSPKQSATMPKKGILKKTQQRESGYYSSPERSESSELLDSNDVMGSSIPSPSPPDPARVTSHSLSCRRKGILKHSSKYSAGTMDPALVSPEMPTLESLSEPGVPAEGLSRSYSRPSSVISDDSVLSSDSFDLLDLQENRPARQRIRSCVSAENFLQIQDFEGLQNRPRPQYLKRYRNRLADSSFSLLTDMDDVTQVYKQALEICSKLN

[4] = experiment wp076, direction down
[5] = experiment wp146, direction down

Cc1ccc(NC(=O)c2cccc(C(F)(F)F)c2)cc1N1Cc2cnc(Nc3ccc(N4CCN(Cc5cn(CCCCCOc6cccc7c6C(=O)N(C6CCC(=O)NC6=O)C7=O)nn5)CC4)nc3)nc2N(C)C1=O (centres unmarked) [DB0646, N-(3-(7-((6-(4-((1-(5-((2-(2,6-Dioxopiperidin-3-yl)-1,3-dioxoisoindolin-4-yl)oxy)pentyl)-1H-1,2,3-triazol-4-yl)methyl)piperazin-1-v)pyridin-3-yl)amino)-1-methyl-2-oxo-1,4-dihydropyrimido[4,5-d]pyrimidin-3(2H)-yl)-4-methylphenyl)-3-(trifluoromethyl)benzamide]
logFC RIPK1 (Q13546) ([1]; experiment wp045): −0.7115
logFC RIPK1 (Q13546) ([1]; experiment wp103): −0.4796
logFC RIPK1 (Q13546) ([1]; experiment wp105): −0.4233
logFC RIPK1 (Q13546) ([1]; experiment wp107): −0.5121
logFC RIPK1 (Q13546) ([1]; experiment wp117): −0.616
logFC RIPK1 (Q13546) ([1]; experiment wp152): −0.5495
logFC RIPK1 (Q13546) ([1]; experiment wp160, 4 hr): −0.3907
logFC RIPK1 (Q13546) ([1]; experiment wp160, 8 hr): −0.8745

Cc1ccc(NC(=O)c2cccc(C(F)(F)F)c2)cc1N1Cc2cnc(Nc3ccc(N4CCN(CCCOc5cccc6c5C(=O)N(C5CCC(=O)NC5=O)C6=O)CC4)nc3)nc2N(C)C1=O (centres unmarked) [DB0662]
logFC of ABL1 (P00519) ([2]; Experiment wp168): −0.7617
logFC ABL1 (P00519) ([2]; experiment wp168): −0.7617

Cc1ccc(NC(=O)c2cccc(C(F)(F)F)c2)cc1N1Cc2cnc(Nc3ccc(N4CCN(CCCCC(=O)N[C@H](C(=O)N5C[C@H](O)C[C@H]5C(=O)N[C@@H](C)c5ccc(-c6scnc6C)cc5)C(C)(C)C)CC4)nc3)nc2N(C)C1=O [DB1113]
logFC of ABL1 (P00519) ([2]; Experiment wp168): −1.014
logFC ABL1 (P00519) ([2]; experiment wp168): −1.014
logFC RIPK1 (Q13546) ([1]; experiment wp168): −1.99

CCc1cnn2c(N(Cc3ccc(N)nc3)C(=O)CCOCCOCCOCCNC(=O)CNc3cccc4c3C(=O)N(C3CCC(=O)NC3=O)C4=O)cc(N3CCCC[C@H]3CCO)nc12 (some centres unmarked) [MFH.5.115.2]
logFC ([3]; experiment wp076): −0.5264
logFC [3, 4]: −0.5264

O=C1CCC(N2C(=O)c3cccc(NCCCCCCCCN4CCC(NC(=O)c5[nH]ncc5NC(=O)c5c(Cl)cccc5Cl)CC4)c3C2=O)C(=O)N1 (centres unmarked) [MFH.5.126.1]
logFC ([3]; experiment wp076): −1.649
logFC [3, 4]: −1.649

Cc1ccc(C(=O)Nc2ccc(CN3CCN(CCCOCCOCCOCCNC(=O)COc4cccc5c4C(=O)N(C4CCC(=O)NC4=O)C5=O)CC3)c(C(F)(F)F)c2)cc1C#Cc1cnc2cccnn12 (centres unmarked) [SB1.G.187]
logFC RIPK1 (Q13546) ([1]; Experiment wp172): −0.9666 and −0.9656
logFC RIPK1 (Q13546) ([1]; experiment wp056): −1.288
logFC RIPK1 (Q13546) ([1]; experiment wp103): −1.767
logFC RIPK1 (Q13546) ([1]; experiment wp105): −1.141
logFC RIPK1 (Q13546) ([1]; experiment wp107): −1.502

CC(C)S(=O)(=O)c1ccccc1Nc1nc(Nc2ccc(N3CCN(CCOCCNC(=O)CNc4cccc5c4C(=O)N(C4CCC(=O)NC4=O)C5=O)CC3)cc2)ncc1Cl (centres unmarked) [SK.3.91]
logFC ABL1 (P00519) ([2]; experiment wp160, 4 hr): −0.3545
logFC of ABL1 (P00519) ([2]; experiment wp160, 4 hr): −0.3545

Cc1ccc(C(=O)Nc2ccc(CN3CCN(CCOCCOCCNC(=O)CNc4cccc5c4C(=O)N(C4CCC(=O)NC4=O)C5=O)CC3)c(C(F)(F)F)c2)cc1C#Cc1cnc2cccnn12 (centres unmarked) [TL13.150]
logFC RIPK1 (Q13546) ([1]; experiment wp081): −0.667

NC(=O)c1c(F)cccc1Nc1nc(Nc2ccc(S(=O)(=O)NCCOCCOCCOCCOCCNc3cccc4c3C(=O)N(C3CCC(=O)NC3=O)C4=O)cc2)ncc1Br (centres unmarked) [TMX.02.138]
logFC ([3]; experiment wp146): −0.8254
logFC [3, 5]: −0.8254

Cc1cc(Nc2ncc(Br)c(Nc3cccc(F)c3C(N)=O)n2)ccc1S(=O)(=O)NCCOCCOCCOCCOCCNc1cccc2c1C(=O)N(C1CCC(=O)NC1=O)C2=O (centres unmarked) [TMX.02.174]
logFC ([3]; experiment wp146): −1.361
logFC [3, 5]: −1.361
